In PMC12595434, “Development of retinoid nuclear receptor pathway antagonists through targeting aldehyde dehydrogenase 1A3” (iScience, 2025):

How the values were obtained:
[1] = target: 5HTT (Homo sapiens, UniProt P31645); experiment: Off-target profiling panel; format: binding; conditions: read-out: Inhibition by MBE1 at 10 μM (%)
[2] = target: H1 (Homo sapiens, UniProt P35367); experiment: Off-target profiling panel; format: binding; conditions: read-out: Inhibition by MBE1 at 10 μM (%)
Sequence of H1 (P35367 whole entry): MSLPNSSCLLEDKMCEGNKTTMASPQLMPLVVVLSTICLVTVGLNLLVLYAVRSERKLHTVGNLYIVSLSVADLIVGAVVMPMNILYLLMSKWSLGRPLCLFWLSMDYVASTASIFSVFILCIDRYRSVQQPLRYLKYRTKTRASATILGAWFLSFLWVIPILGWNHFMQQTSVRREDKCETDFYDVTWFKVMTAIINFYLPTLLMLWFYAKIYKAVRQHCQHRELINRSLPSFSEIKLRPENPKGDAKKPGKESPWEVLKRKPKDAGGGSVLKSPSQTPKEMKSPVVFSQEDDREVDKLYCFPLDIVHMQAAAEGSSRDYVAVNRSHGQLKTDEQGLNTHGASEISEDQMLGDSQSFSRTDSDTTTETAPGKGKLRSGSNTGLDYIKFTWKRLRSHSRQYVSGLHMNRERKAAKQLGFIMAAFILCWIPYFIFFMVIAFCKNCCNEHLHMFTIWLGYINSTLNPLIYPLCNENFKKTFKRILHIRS

Sequence of 5HTT (P31645 whole entry): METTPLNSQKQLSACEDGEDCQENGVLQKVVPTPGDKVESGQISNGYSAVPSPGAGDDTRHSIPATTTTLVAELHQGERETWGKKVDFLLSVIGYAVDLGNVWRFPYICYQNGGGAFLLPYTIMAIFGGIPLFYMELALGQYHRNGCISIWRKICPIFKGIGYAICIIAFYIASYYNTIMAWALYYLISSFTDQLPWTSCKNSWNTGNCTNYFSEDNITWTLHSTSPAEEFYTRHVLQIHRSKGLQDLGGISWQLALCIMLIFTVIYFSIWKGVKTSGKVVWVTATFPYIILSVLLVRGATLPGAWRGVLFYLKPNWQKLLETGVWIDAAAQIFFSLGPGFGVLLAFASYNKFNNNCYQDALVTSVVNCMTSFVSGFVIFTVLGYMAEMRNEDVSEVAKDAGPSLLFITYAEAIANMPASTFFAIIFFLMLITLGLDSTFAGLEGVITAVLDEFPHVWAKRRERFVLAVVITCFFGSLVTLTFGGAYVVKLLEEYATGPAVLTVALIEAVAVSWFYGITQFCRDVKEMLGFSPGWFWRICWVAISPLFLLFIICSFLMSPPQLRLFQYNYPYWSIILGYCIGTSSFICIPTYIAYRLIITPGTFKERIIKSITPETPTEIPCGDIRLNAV

## CCc1cnccc1C(=O)Nc1cc2c(cc1F)NC(=O)CC2 [MBE1, 3-ethyl-N-(7-fluoro-2-oxo-3,4-dihydro-1H-quinolin-6-yl)pyridine-4-carboxamide]
[1]
  inhibition at 10 µM: -24.2%
[2]
  inhibition at 10 µM: -11.7%
